Data published in BigSolDB 2.1.

N#Cc1ccc([N+](=O)[O-])cc1
solubility (mole fraction)
Conditions | 278.15 K | 283.15 K | 288.15 K | 293.15 K | 298.15 K | 303.15 K | 308.15 K | 313.15 K | 318.15 K
in ethanol | 0.00255 | 0.00302 | 0.00376 | 0.00454 | 0.00556 | 0.00672 | 0.00821 | 0.00984 | 0.0116
in ethyl acetate | 0.0404 | 0.0463 | 0.0538 | 0.0619 | 0.0721 | 0.0842 | 0.1 | 0.119 | 0.142
in isopropanol | 0.00162 | 0.00196 | 0.00246 | 0.00304 | 0.00374 | 0.0046 | 0.00572 | 0.00708 | 0.00877
in methanol | 0.0032 | 0.0037 | 0.00448 | 0.00541 | 0.00652 | 0.00788 | 0.00955 | 0.0115 | 0.0135
in n-propanol | 0.00227 | 0.00271 | 0.0033 | 0.00407 | 0.00505 | 0.00619 | 0.00758 | 0.00908 | 0.0108
